Here are results for 18 compounds from patent US20050143321A1, “Composition with stabilized redox properties and method of stabilization of redox properties” (priority 2002, published 2005).

One series has as its system Shigella sp. Briefly: Sensitivity of bacteria to antibiotics dissolved in composition, diffusion into nutrient agar. It counts as cell-based. The following applies: for Rate of increase of sensitivity of bacteria (increase of diameters of zones of suppression vs control): Shigella, antibiotic dissolved in composition pH=7.9, Eh=−230 mV; for change of strain sensitivity: antibiotic dissolved in composition. The procedure:
(§1) It was used the method of preparations diffusion into nutrient agar. […] It was used sterilized water with Eh=250 mV, SCE, pH=7.9 and mineralization 350 mg/l for control.

For a further series, the system named is S. aureus. The series is described as above. Type of series: cell-based. The following applies: for Rate of increase of sensitivity of bacteria (increase of diameters of zones of suppression vs control): Staphylococcus, antibiotic dissolved in composition pH=7.9, Eh=−230 mV. The procedure:
as §1

The subject of the next series is Salmonella sp. The description is as above. It counts as cell-based. Further details: Rate of increase of sensitivity of bacteria (increase of diameters of zones of suppression vs control): concentration or dose not given beside the values. The following applies: for Rate of increase of sensitivity of bacteria (increase of diameters of zones of suppression vs control): Salmonella, antibiotic dissolved in composition pH=7.9, Eh=−230 mV; for change of strain sensitivity: antibiotic dissolved in composition. As to the method: as §1

A further series concerns Klebsiella pneumoniae. The series is described as above. It counts as cell-based. The following applies: for Rate of increase of sensitivity of bacteria (increase of diameters of zones of suppression vs control): Clebsiella, antibiotic dissolved in composition pH=7.9, Eh=−230 mV. Also on record: Rate of increase of sensitivity of bacteria (increase of diameters of zones of suppression vs control): concentration or dose not given beside the values. As to the method:
as §1

Series [1] can be described thus: Stabilization of redox properties of water solution, 6 months storage at 50° C after autoclaving. Type of series: physicochemical. The following applies: autoclaved. As to the method: Water from water supply system with initial characteristics: Eh=+260 mV, SCE, and pH 6.7, is directed to the device of “Izumrud”-type, which is manufactured in Russia. On the output characteristics of water have the values: […] After sterilization these flasks with mentioned water solutions are put into the thermostat at temperature 50° C. Flasks with water solutions corresponding to this invention and stored at the mentioned temperature, protected from light, during 6 months. After 6 months flasks are opened, and the redox potential is measured.

Series [2] in a line: Content of MDA in liposome dispersions (oxidation of phospholipids). It counts as physicochemical. The note with it: Yolk lecithin liposomes; 1 hour. The procedure: In the experiment liposomes are made by mixing and ultrasound treatment of phospholipids of yolk and the water solution, corresponding to this invention, with specified redox properties, containing glycine. Liposomes, prepared by this method, are the milk-white suspension. […] Electrochemically activated water: anomalous properties, mechanism of biological effect. Moscow 1997, […]. 152). There was also determined the rate of oxidation of phospholipids according to content of dialdehyde malonate (DMA).

Setting [3] is: antibiotic dissolved in composition.

As to `NCC[C@H](O)C(=O)N[C@@H]1C[C@H](N)[C@@H](O[C@H]2O[C@H](CN)[C@@H](O)[C@H](O)[C@H]2O)[C@H](O)[C@H]1O[C@H]1O[C@H](CO)[C@@H](O)[C@H](N)[C@H]1O` [Amicacin], the “Rate of increase of sensitivity of bacteria (increase of diameters of zones of suppression vs control)” value in the series with Shigella sp. is listed as 38%; with S. aureus, 4%; in the series with Salmonella sp., 18%; in the series with Klebsiella pneumoniae it was 34%. Moreover, the “change of strain sensitivity” value in the series on Shigella sp. is recorded as “from medium sensitive to sensitive”. Further, in the series on Klebsiella pneumoniae (setting [3]), the change of sensitivity result is given as “increased”.

Regarding `NCC(N)=O` [Glycine amide], the “pH after 6 months” value worked out at 6.5 in series [1] (0.005% of weight), 7.4 in series [1] (0.5% of weight) and 7.0 in series [1] (10% of weight).

As to `N[C@@H](Cc1ccc(O)cc1)C(=O)O` [Tyrosine], the “Eh after 6 months” value in series [1] (0.005% of weight) is −5 mV; in series [1] (0.5% of weight), −80 mV; in series [1] (10% of weight), −30 mV. Besides, the figures for the “pH after 6 months” value in series [1] (0.005% of weight), in series [1] (0.5% of weight) and in series [1] (10% of weight) were 7.2, 7.4 and 7.2, respectively.

Regarding Gelatin, the results for the “pH after 6 months” value in series [1] (0.005% of weight), in series [1] (0.5% of weight) and in series [1] (10% of weight) were 6.8, 7.3 and 7.6, respectively.

For the compound `NCC(=O)O` [Glycine], the “pH after 6 months” value in series [1] (0.005% of weight) was 7.2; in series [1] (0.5% of weight), 7.9; in series [1] (10% of weight), 7.7.

For the compound `NC[C@H]1O[C@H](O[C@H]2[C@H](O)[C@@H](O[C@H]3O[C@H](CO)[C@@H](O)[C@H](N)[C@H]3O)[C@H](N)C[C@@H]2N)[C@H](O)[C@@H](O)[C@@H]1O` [Kanamycin], the “Rate of increase of sensitivity of bacteria (increase of diameters of zones of suppression vs control)” value with Shigella sp. is 35%; in the series with S. aureus it was 8%; in the series with Salmonella sp., 18%; in the series with Klebsiella pneumoniae it was 12%.

`CC(=O)Oc1c(C)c(C)c2c(c1C)CCC(C)(CCC[C@H](C)CCC[C@H](C)CCCC(C)C)O2` (some centres unmarked) [Water + tocopherol acetate (2%), tocopherol acetate]: the “Content of MDA” value in series [2] amounted to 3.1 nmol/mL.

For the compound `Cc1cc(C(C)(C)C)c(O)c(C(C)(C)C)c1` [Water + agidol (1.0%), agidol], in series [2], the “Content of MDA” value came out at 2.0 nmol/mL.

Regarding `Cc1cc(C(C)(C)C)c(O)c(C(C)(C)C)c1` [Water + butyl-hydroxytoluene (0.1%), butyl-hydroxytoluene], in series [2], the “Content of MDA” value turned out to be 2.7 nmol/mL.

Consider Gentamycin, for which the “Rate of increase of sensitivity of bacteria (increase of diameters of zones of suppression vs control)” value was 40% in the series on Shigella sp., 11% with S. aureus, 47% with Salmonella sp. and 6% in the series with Klebsiella pneumoniae. Moreover, the “change of strain sensitivity” value with Shigella sp. and in the series with Salmonella sp. was “from resistant to sensitive” each time.

Turning to `C[C@@H](O)[C@H](N)C(=O)O` [Threonine], the “pH after 6 months” value in series [1] (0.005% of weight) amounted to 7.1; in series [1] (0.5% of weight), 7.5; in series [1] (10% of weight) it was 7.4.

On to `O=C(N[C@H](CO)[C@H](O)c1ccc([N+](=O)[O-])cc1)C(Cl)Cl` [Chloramphenicol], for which the “Rate of increase of sensitivity of bacteria (increase of diameters of zones of suppression vs control)” value in the series on Shigella sp. was 17%; in the series on S. aureus, 3%; in the series on Salmonella sp., 6%; in the series on Klebsiella pneumoniae it was 5%.

Regarding `CCn1cc(C(=O)O)c(=O)c2ccc(C)nc21` [Nalidixic acid], the “Rate of increase of sensitivity of bacteria (increase of diameters of zones of suppression vs control)” value worked out at 33% with Shigella sp., 3% with S. aureus, 42% in the series with Salmonella sp. and 11% with Klebsiella pneumoniae. Also, in the series with Salmonella sp., the “change of strain sensitivity” value is reported as “from resistant to sensitive”.

In the case of `NC(=O)C[C@H](N)C(=O)O` [Asparagine], the “pH after 6 months” value in series [1] (0.005% of weight) is 5.9; in series [1] (0.5% of weight), 6.9; in series [1] (10% of weight), 7.0.

For `CC1(C)S[C@@H]2[C@H](NC(=O)[C@H](N)c3ccccc3)C(=O)N2[C@H]1C(=O)O` [Ampicillin], the “Rate of increase of sensitivity of bacteria (increase of diameters of zones of suppression vs control)” value was 44% in the series with Shigella sp., 22% with S. aureus, 26% in the series on Salmonella sp. and 7% in the series on Klebsiella pneumoniae. In addition, the “change of strain sensitivity” value was “from resistant to sensitive” in the series on Shigella sp. and “from medium sensitive to sensitive” in the series with Salmonella sp.. Also, the change of sensitivity result with S. aureus (setting [3]) is “increased”.

With `NC(=O)CC[C@H](N)C(=O)O` [Glutamine], the “pH after 6 months” value in series [1] (0.005% of weight) is 5.8; in series [1] (0.5% of weight), 7.2; in series [1] (10% of weight), 7.2.

As for `N[C@@H](CO)C(=O)O` [Serine], the “pH after 6 months” value is recorded as 7.1 in series [1] (0.005% of weight), 7.8 in series [1] (0.5% of weight) and 7.6 in series [1] (10% of weight).

With `N[C@@H](CS)C(=O)O` [Cysteine], the “pH after 6 months” value is 7.3 in series [1] (0.005% of weight), 7.8 in series [1] (0.5% of weight) and 6.9 in series [1] (10% of weight).
